Source: PubChem BioAssay (NCI)
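Five compound concentrations were applied to cells in 96-well plates for 48 hours; endpoints were derived by simple linear interpolation of the resulting dose-response curve. GI50: concentration for 50% inhibition of growth. TGI: concentration producing complete growth inhibition.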

Experiments:
Experiment in all cases: inhibition of tumour cell growth, NCI panel, 48 h
SF-539 CNS = system: SF-539 CNS
OVCAR-3 ovarian = system: OVCAR-3 ovarian
IGROV1 ovarian = system: IGROV1 ovarian
HCT-116 colon = system: HCT-116 colon
OVCAR-5 ovarian = system: OVCAR-5 ovarian
SK-MEL-28 melanoma = system: SK-MEL-28 melanoma
MALME-3M melanoma = system: MALME-3M melanoma
M14 melanoma = system: M14 melanoma
NCI-H23 lung = system: NCI-H23 lung
EKVX NSCLC = system: EKVX NSCLC
SR leukemia = system: SR leukemia
UACC-257 melanoma = system: UACC-257 melanoma
NCI/ADR-RES ovarian = system: NCI/ADR-RES ovarian
HOP-92 NSCLC = system: HOP-92 NSCLC
HT29 colon = system: HT29 colon
A498 renal = system: A498 renal
UACC-62 melanoma = system: UACC-62 melanoma
HS 578T breast = system: HS 578T breast
A549 NSCLC = system: A549 NSCLC
SNB-19 CNS = system: SNB-19 CNS
MOLT-4 leukemia = system: MOLT-4 leukemia
SN12C renal = system: SN12C renal
RPMI-8226 leukemia = system: RPMI-8226 leukemia
K-562 leukemia = system: K-562 leukemia
COLO 205 colon = system: COLO 205 colon
OVCAR-4 ovarian = system: OVCAR-4 ovarian
T-47D breast = system: T-47D breast
SF-295 CNS = system: SF-295 CNS
U251 CNS = system: U251 CNS
MDA-MB-435 = system: MDA-MB-435
CAKI-1 renal = system: CAKI-1 renal
PC-3 prostate = system: PC-3 prostate
SW-620 colon = system: SW-620 colon
UO-31 renal = system: UO-31 renal
NCI-H522 lung = system: NCI-H522 lung
LOX IMVI melanoma = system: LOX IMVI melanoma
HL-60(TB) leukemia = system: HL-60(TB) leukemia
KM12 colon = system: KM12 colon
HCC-2998 colon = system: HCC-2998 colon
HOP-62 NSCLC = system: HOP-62 NSCLC
MCF7 breast = system: MCF7 breast
786-0 renal = system: 786-0 renal
SF-268 CNS = system: SF-268 CNS
HCT-15 colon = system: HCT-15 colon
SK-OV-3 ovarian = system: SK-OV-3 ovarian
ACHN renal = system: ACHN renal
BT-549 breast = system: BT-549 breast
SK-MEL-5 melanoma = system: SK-MEL-5 melanoma
OVCAR-8 ovarian = system: OVCAR-8 ovarian
MDA-MB-231 breast = system: MDA-MB-231 breast
NCI-H226 lung = system: NCI-H226 lung
SNB-75 CNS = system: SNB-75 CNS
DU-145 prostate = system: DU-145 prostate
NCI-H460 lung = system: NCI-H460 lung
SK-MEL-2 melanoma = system: SK-MEL-2 melanoma
CCRF-CEM leukemia = system: CCRF-CEM leukemia
TK-10 renal = system: TK-10 renal

Question: `CCNCCOc1ccc(/C(=C(/CC)c2ccc(Cl)cc2)c2ccc(OCCCN(C)C)cc2)cc1` was tested. Which GI50 (SF-539 CNS) did it give?
Answer: 3.97 µM

Question: What about the TGI (SF-539 CNS) of the same compound?
Answer: 7.51 µM

Question: And the GI50 (OVCAR-3 ovarian)?
Answer: 3.46 µM

Question: What about the TGI (OVCAR-3 ovarian) of the same compound?
Answer: 6.87 µM

Question: And the GI50 (IGROV1 ovarian)?
Answer: 4.17 µM

Question: What about the TGI (IGROV1 ovarian) of the same compound?
Answer: 7.85 µM

Question: And the GI50 (HCT-116 colon)?
Answer: 2.78 µM

Question: And the TGI (HCT-116 colon)?
Answer: 6.48 µM

Question: And the GI50 (OVCAR-5 ovarian)?
Answer: 4.07 µM

Question: What about the TGI (OVCAR-5 ovarian) of the same compound?
Answer: 7.67 µM

Question: And the GI50 (SK-MEL-28 melanoma)?
Answer: 4.16 µM

Question: What about the TGI (SK-MEL-28 melanoma) of the same compound?
Answer: 7.78 µM

Question: What about the GI50 (MALME-3M melanoma) of the same compound?
Answer: 3.95 µM

Question: What about the TGI (MALME-3M melanoma) of the same compound?
Answer: 7.57 µM

Question: And the GI50 (M14 melanoma)?
Answer: 4.3 µM

Question: And the TGI (M14 melanoma)?
Answer: 8.31 µM

Question: What about the GI50 (NCI-H23 lung) of the same compound?
Answer: 4.31 µM

Question: And the TGI (NCI-H23 lung)?
Answer: 8.15 µM

Question: And the GI50 (EKVX NSCLC)?
Answer: 4.32 µM

Question: What about the TGI (EKVX NSCLC) of the same compound?
Answer: 8.1 µM

Question: And the GI50 (SR leukemia)?
Answer: 2.98 µM

Question: And the TGI (SR leukemia)?
Answer: 8.52 µM

Question: And the GI50 (UACC-257 melanoma)?
Answer: 4.04 µM

Question: And the TGI (UACC-257 melanoma)?
Answer: 7.83 µM

Question: And the GI50 (NCI/ADR-RES ovarian)?
Answer: 4.19 µM

Question: What about the TGI (NCI/ADR-RES ovarian) of the same compound?
Answer: 8.08 µM

Question: And the GI50 (HOP-92 NSCLC)?
Answer: 0.818 µM

Question: And the TGI (HOP-92 NSCLC)?
Answer: 4.47 µM

Question: And the GI50 (HT29 colon)?
Answer: 0.98 µM

Question: What about the TGI (HT29 colon) of the same compound?
Answer: 3.79 µM

Question: And the GI50 (A498 renal)?
Answer: 3.38 µM

Question: And the TGI (A498 renal)?
Answer: 6.98 µM

Question: And the GI50 (UACC-62 melanoma)?
Answer: 4.48 µM

Question: And the TGI (UACC-62 melanoma)?
Answer: 8.22 µM

Question: And the GI50 (HS 578T breast)?
Answer: 3.26 µM

Question: And the TGI (HS 578T breast)?
Answer: 7.63 µM

Question: What about the GI50 (A549 NSCLC) of the same compound?
Answer: 3.33 µM

Question: What about the TGI (A549 NSCLC) of the same compound?
Answer: 7.15 µM

Question: And the GI50 (SNB-19 CNS)?
Answer: 4.45 µM

Question: What about the TGI (SNB-19 CNS) of the same compound?
Answer: 8.21 µM

Question: And the GI50 (MOLT-4 leukemia)?
Answer: 4.56 µM

Question: And the TGI (MOLT-4 leukemia)?
Answer: 9.41 µM

Question: What about the GI50 (SN12C renal) of the same compound?
Answer: 3.84 µM

Question: And the TGI (SN12C renal)?
Answer: 7.42 µM

Question: What about the GI50 (RPMI-8226 leukemia) of the same compound?
Answer: 4.98 µM

Question: What about the TGI (RPMI-8226 leukemia) of the same compound?
Answer: 13.5 µM

Question: And the GI50 (K-562 leukemia)?
Answer: 0.933 µM

Question: What about the TGI (K-562 leukemia) of the same compound?
Answer: 2.43 µM

Question: What about the GI50 (COLO 205 colon) of the same compound?
Answer: 3.13 µM

Question: And the TGI (COLO 205 colon)?
Answer: 7.84 µM

Question: And the GI50 (OVCAR-4 ovarian)?
Answer: 3.83 µM

Question: And the TGI (OVCAR-4 ovarian)?
Answer: 8.07 µM

Question: What about the GI50 (T-47D breast) of the same compound?
Answer: 3.05 µM

Question: What about the TGI (T-47D breast) of the same compound?
Answer: 7.55 µM

Question: And the GI50 (SF-295 CNS)?
Answer: 4.44 µM

Question: And the TGI (SF-295 CNS)?
Answer: 8.24 µM

Question: And the GI50 (U251 CNS)?
Answer: 3.17 µM

Question: What about the TGI (U251 CNS) of the same compound?
Answer: 6.61 µM

Question: And the GI50 (MDA-MB-435)?
Answer: 3.77 µM

Question: What about the TGI (MDA-MB-435) of the same compound?
Answer: 7.34 µM

Question: And the GI50 (CAKI-1 renal)?
Answer: 4.39 µM

Question: What about the TGI (CAKI-1 renal) of the same compound?
Answer: 8.05 µM

Question: And the GI50 (PC-3 prostate)?
Answer: 4.01 µM

Question: What about the TGI (PC-3 prostate) of the same compound?
Answer: 9.01 µM

Question: And the GI50 (SW-620 colon)?
Answer: 1.75 µM

Question: And the TGI (SW-620 colon)?
Answer: 5.24 µM

Question: And the GI50 (UO-31 renal)?
Answer: 3.32 µM

Question: What about the TGI (UO-31 renal) of the same compound?
Answer: 6.68 µM

Question: And the GI50 (NCI-H522 lung)?
Answer: 4 µM

Question: And the TGI (NCI-H522 lung)?
Answer: 8.04 µM

Question: What about the GI50 (LOX IMVI melanoma) of the same compound?
Answer: 3.72 µM

Question: What about the TGI (LOX IMVI melanoma) of the same compound?
Answer: 7.37 µM

Question: What about the GI50 (HL-60(TB) leukemia) of the same compound?
Answer: 5.83 µM

Question: What about the TGI (HL-60(TB) leukemia) of the same compound?
Answer: 11.1 µM

Question: And the GI50 (KM12 colon)?
Answer: 3.94 µM

Question: What about the TGI (KM12 colon) of the same compound?
Answer: 7.59 µM

Question: And the GI50 (HCC-2998 colon)?
Answer: 3.93 µM

Question: What about the TGI (HCC-2998 colon) of the same compound?
Answer: 7.72 µM

Question: What about the GI50 (HOP-62 NSCLC) of the same compound?
Answer: 4.24 µM

Question: What about the TGI (HOP-62 NSCLC) of the same compound?
Answer: 8.69 µM

Question: What about the GI50 (MCF7 breast) of the same compound?
Answer: 1.3 µM

Question: What about the TGI (MCF7 breast) of the same compound?
Answer: 4.94 µM

Question: And the GI50 (786-0 renal)?
Answer: 3.57 µM

Question: What about the TGI (786-0 renal) of the same compound?
Answer: 7.44 µM

Question: And the GI50 (SF-268 CNS)?
Answer: 3.89 µM

Question: And the TGI (SF-268 CNS)?
Answer: 7.92 µM

Question: What about the GI50 (HCT-15 colon) of the same compound?
Answer: 2.19 µM

Question: And the TGI (HCT-15 colon)?
Answer: 5.54 µM

Question: What about the GI50 (SK-OV-3 ovarian) of the same compound?
Answer: 4.36 µM

Question: What about the TGI (SK-OV-3 ovarian) of the same compound?
Answer: 8.34 µM

Question: And the GI50 (ACHN renal)?
Answer: 4.41 µM

Question: And the TGI (ACHN renal)?
Answer: 8.02 µM

Question: And the GI50 (BT-549 breast)?
Answer: 3.45 µM

Question: And the TGI (BT-549 breast)?
Answer: 7.16 µM

Question: What about the GI50 (SK-MEL-5 melanoma) of the same compound?
Answer: 4.51 µM

Question: What about the TGI (SK-MEL-5 melanoma) of the same compound?
Answer: 8.21 µM

Question: And the GI50 (OVCAR-8 ovarian)?
Answer: 3.91 µM

Question: And the TGI (OVCAR-8 ovarian)?
Answer: 7.64 µM

Question: What about the GI50 (MDA-MB-231 breast) of the same compound?
Answer: 4.06 µM

Question: And the TGI (MDA-MB-231 breast)?
Answer: 7.73 µM

Question: And the GI50 (NCI-H226 lung)?
Answer: 3.74 µM

Question: What about the TGI (NCI-H226 lung) of the same compound?
Answer: 7.59 µM

Question: And the GI50 (SNB-75 CNS)?
Answer: 3.68 µM

Question: What about the TGI (SNB-75 CNS) of the same compound?
Answer: 7.45 µM

Question: What about the GI50 (DU-145 prostate) of the same compound?
Answer: 3.99 µM

Question: What about the TGI (DU-145 prostate) of the same compound?
Answer: 7.5 µM

Question: What about the GI50 (NCI-H460 lung) of the same compound?
Answer: 3.9 µM

Question: And the TGI (NCI-H460 lung)?
Answer: 7.6 µM

Question: And the GI50 (SK-MEL-2 melanoma)?
Answer: 4.13 µM

Question: And the TGI (SK-MEL-2 melanoma)?
Answer: 7.77 µM

Question: And the GI50 (CCRF-CEM leukemia)?
Answer: 5.08 µM

Question: What about the TGI (CCRF-CEM leukemia) of the same compound?
Answer: 11.4 µM

Question: What about the GI50 (TK-10 renal) of the same compound?
Answer: 3.99 µM

Question: And the TGI (TK-10 renal)?
Answer: 8.07 µM
